Calls of active or inactive are those of the source. The rule behind the calls is not given here.
Legend:
[1] = Antiproliferative activity against human NCM460 cells assessed as reduction in cell viability measured after 48 to 72 hrs by MTT assay; type: toxicity, cell-based
HepG2 [2] = assay: Antiproliferative activity against human HepG2 cells assessed as reduction in cell viability measured after 48 to 72 hrs by MTT assay; type: functional, cell-based
Bel-7402 [3] = assay: Antiproliferative activity against human Bel-7402 cells assessed as reduction in cell viability measured after 48 to 72 hrs by MTT assay; type: functional, cell-based
[4] = Antiproliferative activity against human L02 cells assessed as reduction in cell viability measured after 48 to 72 hrs by MTT assay; type: toxicity, cell-based
Bel-7402 [5] = assay: Antiproliferative activity against human Bel-7402 cells assessed as reduction in cell viability at 20 uM measured after 48 hrs by MTT assay relative to control; type: functional
HepG2 [6] = assay: Antiproliferative activity against human HepG2 cells assessed as reduction in cell viability at 20 uM measured after 48 hrs by MTT assay relative to control; type: functional
Bel-7402 [7] = assay: Antiproliferative activity against human Bel-7402 cells assessed as reduction in cell viability at 20 uM measured after 48 hrs by MTT assay; type: functional, cell-based
Bel-7402 [8] = assay: Antiproliferative activity against human Bel-7402 cells assessed as reduction in cell viability at 20 uM measured after 48 to 72 hrs in presence of 5-Fluorouracil by MTT assay; type: functional, cell-based; conditions: time 48-72 hrs
[9] = Toxicity in orthotopic mouse assessed as effect on liver at 60 mg/kg, iv administered twice daily for 18 days by H and E staining based analysis; type: organism-based; conditions: in vivo, 432 h, time 18 day
HepG2 [10] = assay: Antitumor activity against human HepG2 cells xenografted in mouse model assessed as tumor growth inhibition at 100 mg/kg/day for 7 days relative to control; type: functional; conditions: HepG2, 168 h, time 7 day, read-out: TGI
HepG2 [11] = assay: Antitumor activity against human HepG2 cells xenografted in orthotopic mouse model assessed as tumor growth inhibition at 60 mg/kg, iv administered twice daily for 18 days in presence of 5-Fluorouracil relative to control; type: functional; conditions: HepG2, 432 h, time 18 day, read-out: TGI
[12] = Toxicity in orthotopic mouse assessed as change in liver weight at 60 mg/kg, iv administered twice daily for 18 days; type: organism-based; conditions: in vivo, 432 h, time 18 day
[13] = Toxicity in orthotopic mouse assessed as effect on body weight at 60 mg/kg, iv administered twice daily for 18 days; type: organism-based; conditions: in vivo, 432 h, time 18 day
[14] = Toxicity in orthotopic mouse assessed as effect on kidney at 60 mg/kg, iv administered twice daily for 18 days by H and E staining based analysis; type: organism-based; conditions: in vivo, 432 h, time 18 day
[15] = Toxicity in orthotopic mouse assessed as effect on spleen at 60 mg/kg, iv administered twice daily for 18 days by H and E staining based analysis; type: organism-based; conditions: in vivo, 432 h, time 18 day
HepG2 [16] = assay: Antitumor activity against human HepG2 cells xenografted in orthotopic mouse model assessed as average number of tumor at 60 mg/kg, iv administered twice daily for 18 days in presence of 5-Fluorouracil (reference value: 49+/3.6 mM); type: functional; conditions: time 18 day
HepG2 [17] = assay: Antitumor activity against human HepG2 cells xenografted in mouse model assessed as tumor growth inhibition at 150 mg/kg/day for 7 days relative to control; type: functional; conditions: HepG2, 168 h, time 7 day, read-out: TGI
[18] = Toxicity in orthotopic mouse assessed as effect on drug tolerance at 60 mg/kg, iv administered twice daily for 18 days; type: organism-based; conditions: in vivo, 432 h, time 18 day
[19] = Toxicity in orthotopic mouse assessed as effect on lung at 60 mg/kg, iv administered twice daily for 18 days by H and E staining based analysis; type: organism-based; conditions: in vivo, 432 h, time 18 day
HepG2 [20] = assay: Antiproliferative activity against human HepG2 cells assessed as reduction in cell viability at 20 uM measured after 48 to 72 hrs in presence of 5-Fluorouracil by MTT assay; type: functional, cell-based; conditions: time 48-72 hrs
[21] = Toxicity in orthotopic mouse assessed as effect on heart at 60 mg/kg, iv administered twice daily for 18 days by H and E staining based analysis; type: organism-based; conditions: in vivo, 432 h, time 18 day

Structure (SMILES)	IC50 [1] [µM]	IC50 (HepG2 [2]) [µM]	IC50 (Bel-7402 [3]) [µM]	IC50 [4] [µM]	Activity (Bel-7402 [5]) [%]	Activity (HepG2 [6]) [%]	other results
CC(C)C[C@H](NC(=O)OC(C)(C)C)C(=O)O[C@H]1C[C@H](n2cc(F)c(=O)[nH]c2=O)O[C@@H]1CO[P@@](=O)(N[C@@H](C)C(=O)OC(C)C)Oc1ccccc1	> 100	21.2	9.68	> 100	>60		
CC(C)OC(=O)[C@H](C)N[P@](=O)(OC[C@H]1O[C@@H](n2cc(F)c(=O)[nH]c2=O)C[C@@H]1OC(=O)[C@H](Cc1ccccc1)NC(=O)[C@@H](N)C(C)C)Oc1ccccc1					50	50	
CC(C)OC(=O)[C@H](C)N[P@](=O)(OC[C@H]1O[C@@H](n2cc(F)c(=O)[nH]c2=O)C[C@@H]1OC(=O)[C@H](C)N)Oc1ccccc1							Activity (Bel-7402 [7]): Active
CC(C)OC(=O)[C@H](C)N[P@](=O)(OC[C@H]1O[C@@H](n2cc(F)c(=O)[nH]c2=O)C[C@@H]1OC(=O)[C@@H](N)CC(=O)O)Oc1ccccc1							Activity (Bel-7402 [7]): Active
C[C@H](N[P@](=O)(OC[C@H]1O[C@@H](n2cc(F)c(=O)[nH]c2=O)C[C@@H]1O)Oc1cccc2ccccc12)C(=O)OCc1ccccc1	> 100	> 100	> 100	> 100	<10	<10	
CC(C)OC(=O)[C@H](C)N[P@](=O)(OC[C@H]1O[C@@H](n2cc(F)c(=O)[nH]c2=O)C[C@@H]1OC(=O)[C@H](C)NC(=O)CN)Oc1ccccc1					50	50	
CC(C)OC(=O)[C@H](C)N[P@](=O)(OC[C@H]1O[C@@H](n2cc(F)c(=O)[nH]c2=O)C[C@@H]1OC(=O)CN)Oc1ccccc1							Activity (Bel-7402 [7]): Active
CC(C)C[C@H](N)C(=O)NCC(=O)O[C@H]1C[C@H](n2cc(F)c(=O)[nH]c2=O)O[C@@H]1CO[P@@](=O)(N[C@@H](C)C(=O)OC(C)C)Oc1ccccc1					50	50	
CC(C)C[C@H](NC(=O)CNC(=O)OC(C)(C)C)C(=O)O[C@H]1C[C@H](n2cc(F)c(=O)[nH]c2=O)O[C@@H]1CO[P@@](=O)(N[C@@H](C)C(=O)OC(C)C)Oc1ccccc1						>50	
Cc1ccccc1CO[P@](=O)(N[C@@H](C)C(=O)OC(C)C)OC[C@H]1O[C@@H](n2cc(F)c(=O)[nH]c2=O)C[C@@H]1O	> 100	0.59	0.73	> 100			
CCC(C)[C@H](NC(=O)OC(C)(C)C)C(=O)O[C@H]1C[C@H](n2cc(F)c(=O)[nH]c2=O)O[C@@H]1CO[P@@](=O)(N[C@@H](C)C(=O)OC(C)C)Oc1ccccc1 (some centres undefined)	> 100	48.7	8.99	> 100	>60		
CC(C)OC(=O)[C@H](C)N[P@](=O)(OC[C@H]1O[C@@H](n2cc(F)c(=O)[nH]c2=O)C[C@@H]1OC(=O)[C@H](CC(=O)OC(C)(C)C)NC(=O)OC(C)(C)C)Oc1ccccc1	> 100	19.9	3.77	> 100	>60		
CC(C)OC(=O)[C@H](C)N[P@](=O)(OC[C@H]1O[C@@H](n2cc(F)c(=O)[nH]c2=O)C[C@@H]1O)Oc1ccccc1	> 100	36.2	18.2	> 100			Activity (Bel-7402 [8]): Active; Activity [9]: Non-Toxic; inhibition in vivo at 100 mg/kg/day (HepG2 [10]): 52%; inhibition in vivo at 60 mg/kg (HepG2 [11]): 57.1%; Activity [12]: Toxic; Activity [13]: Non-Toxic; Activity [14]: Non-Toxic; Activity [15]: Non-Toxic; tumour count (HepG2 [16]): 21; inhibition in vivo at 150 mg/kg/day (HepG2 [17]): 68%; Activity [18]: Non-Toxic; Activity [19]: Non-Toxic; Activity (HepG2 [20]): Active; Activity [21]: Non-Toxic
CC(C)C[C@H](NC(=O)CN)C(=O)O[C@H]1C[C@H](n2cc(F)c(=O)[nH]c2=O)O[C@@H]1CO[P@@](=O)(N[C@@H](C)C(=O)OC(C)C)Oc1ccccc1					50	50	
CC(C)C[C@H](NC(=O)OC(C)(C)C)C(=O)NCC(=O)O[C@H]1C[C@H](n2cc(F)c(=O)[nH]c2=O)O[C@@H]1CO[P@@](=O)(N[C@@H](C)C(=O)OC(C)C)Oc1ccccc1					50	50	
CC(C)OC(=O)[C@H](C)N[P@](=O)(OC[C@H]1O[C@@H](n2cc(F)c(=O)[nH]c2=O)C[C@@H]1OC(=O)CNC(=O)OC(C)(C)C)Oc1ccccc1	> 100	17.5	10.1	> 100	>60	>50	
CCC(C)[C@H](N)C(=O)O[C@H]1C[C@H](n2cc(F)c(=O)[nH]c2=O)O[C@@H]1CO[P@@](=O)(N[C@@H](C)C(=O)OC(C)C)Oc1ccccc1 (some centres undefined)	> 100	15.2	9.11	> 100		>50	Activity (Bel-7402 [7]): Active
CC(C)OC(=O)[C@H](C)N[P@](=O)(OC[C@H]1O[C@@H](n2cc(F)c(=O)[nH]c2=O)C[C@@H]1OC(=O)[C@H](C)NC(=O)CNC(=O)OC(C)(C)C)Oc1ccccc1					50	50	
CC(C)C[C@H](N)C(=O)O[C@H]1C[C@H](n2cc(F)c(=O)[nH]c2=O)O[C@@H]1CO[P@@](=O)(N[C@@H](C)C(=O)OC(C)C)Oc1ccccc1							Activity (Bel-7402 [7]): Active
CC(C)OC(=O)[C@H](C)N[P@](=O)(OC[C@H]1O[C@@H](n2cc(F)c(=O)[nH]c2=O)C[C@@H]1OC(=O)OC(C)(C)C)Oc1ccccc1					50	50	
CC(C)OC(=O)[C@H](C)N[P@](=O)(OC[C@H]1O[C@@H](n2cc(F)c(=O)[nH]c2=O)C[C@@H]1OC(=O)[C@@H](N)Cc1ccccc1)Oc1ccccc1							Activity (Bel-7402 [7]): Active
CC(C)OC(=O)[C@H](C)N[P@](=O)(OC[C@H]1O[C@@H](n2cc(F)c(=O)[nH]c2=O)C[C@@H]1OC(=O)[C@H](Cc1ccccc1)NC(=O)[C@@H](NC(=O)OC(C)(C)C)C(C)C)Oc1ccccc1	> 100	34.1	13.2	> 100			
CC(C)OC(=O)[C@H](C)N[P@](=O)(OC[C@H]1O[C@@H](n2cc(F)c(=O)[nH]c2=O)C[C@@H]1OC(=O)[C@H](Cc1ccccc1)NC(=O)OC(C)(C)C)Oc1ccccc1	> 100	28.7	7.18	> 100	>60		
